Data reported in patent publication US6638973B2, “Taxane formulations” (FSU Research Foundation, Inc., priority 2000, dated 2003).

Tested on: HCT116 cells
Test: In vitro cytotoxicity measured by the cell colony formation assay
Assay type: cell-based
Settings: HCT116 cells, 72 h incubation with drug, colonies counted after 7 days; ID50 = drug concentration producing 50% inhibition of colony formation; read-out: IN VITRO ID 50 (nm) HCT116
Outline: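 Colony-forming survival was scored 7 days after a 72 h, 37 °C compound exposure followed by washout into fresh medium.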

| Compound | IC50 [nM] |
| --- | --- |
| CC(=O)O[C@H]1C[C@H]2OC[C@@]2(OC(C)=O)C2[C@H](OC(=O)c3ccccc3)[C@]3(O)C[C@H](OC(=O)[C@H](O)[C@@H](NC(=O)OCC(C)C)c4ccsc4)C(C)=C([C@@H](O)C(=O)[C@@]21C)C3(C)C (some centres unmarked) [Compound 4515] | < 10 |
| COC(=O)O[C@H]1C(=O)[C@@]2(C)C([C@H](OC(=O)c3ccccc3)[C@]3(O)C[C@H](OC(=O)[C@H](O)[C@@H](NC(=O)OC(C)(C)C)C4CCC4)C(C)=C1C3(C)C)[C@]1(OC(C)=O)CO[C@@H]1C[C@@H]2O (some centres unmarked) [Compound 2077] | < 10 |
| COC(=O)O[C@H]1C(=O)[C@@]2(C)C([C@H](OC(=O)c3ccccc3)[C@]3(O)C[C@H](OC(=O)[C@H](O)[C@@H](NC(=O)OC(C)(C)C)c4ccsc4)C(C)=C1C3(C)C)[C@]1(OC(C)=O)CO[C@@H]1C[C@@H]2O (some centres unmarked) [Compound 2050] | < 1 |
| COC(=O)O[C@H]1C[C@H]2OC[C@@]2(OC(C)=O)C2[C@H](OC(=O)c3ccccc3)[C@]3(O)C[C@H](OC(=O)[C@H](O)[C@@H](NC(=O)OCC(C)C)c4cccs4)C(C)=C([C@@H](O)C(=O)[C@@]21C)C3(C)C (some centres unmarked) [Compound 4355] | < 1 |
| COC(=O)O[C@H]1C[C@H]2OC[C@@]2(OC(C)=O)C2[C@H](OC(=O)c3ccccc3)[C@]3(O)C[C@H](OC(=O)[C@H](O)[C@@H](NC(=O)OCC(C)C)c4ccco4)C(C)=C([C@@H](O)C(=O)[C@@]21C)C3(C)C (some centres unmarked) [Compound 4656] | < 1 |

Same assay, conditions: HCT116 cells, colony formation, 72 h incubation with drug, colonies counted after 7 days; ID50 = drug concentration producing 50% inhibition of colony formation; read-out: IN VITRO ID 50 (nm) HCT116

| Compound | IC50 [nM] |
| --- | --- |
| CCNC(=O)O[C@H]1C(=O)[C@@]2(C)C([C@H](OC(=O)c3ccccc3)[C@]3(O)C[C@H](OC(=O)[C@H](O)[C@@H](NC(=O)OC(C)(C)C)c4ccoc4)C(C)=C1C3(C)C)[C@]1(OC(C)=O)CO[C@@H]1C[C@@H]2O (some centres unmarked) [Compound 2717] | < 1 |

Same assay, conditions: HCT116 colony formation; 72 h drug incubation, colonies counted after 7 days; Example 5, C-7 ester/C-10 hydroxy taxanes; read-out: IN VITRO ID 50 (nm) HCT116

| Compound | IC50 [nM] |
| --- | --- |
| CCCC(=O)N[C@@H](c1ccco1)[C@@H](O)C(=O)O[C@H]1C[C@@]2(O)[C@@H](OC(=O)c3ccccc3)C3[C@](C)(C(=O)[C@H](O)C(=C1C)C2(C)C)[C@@H](OC(=O)CC)C[C@H]1OC[C@@]31OC(C)=O (some centres unmarked) [Compound 3171] | < 1 |
| CCC(=O)O[C@H]1C[C@H]2OC[C@@]2(OC(C)=O)C2[C@H](OC(=O)c3ccccc3)[C@]3(O)C[C@H](OC(=O)[C@H](O)[C@@H](NC(=O)OC(C)(C)C)c4ccccc4)C(C)=C([C@@H](O)C(=O)[C@@]21C)C3(C)C (some centres unmarked) [Compound 1458] | < 10 |
| CCC(=O)O[C@H]1C[C@H]2OC[C@@]2(OC(C)=O)C2[C@H](OC(=O)c3ccccc3)[C@]3(O)C[C@H](OC(=O)[C@H](O)[C@@H](NC(=O)OCC(C)C)c4cccs4)C(C)=C([C@@H](O)C(=O)[C@@]21C)C3(C)C (some centres unmarked) [Compound 3232] | < 1 |
| CCC(=O)O[C@H]1C[C@H]2OC[C@@]2(OC(C)=O)C2[C@H](OC(=O)c3ccccc3)[C@]3(O)C[C@H](OC(=O)[C@H](O)[C@@H](NC(=O)OC(C)(C)CC)c4ccco4)C(C)=C([C@@H](O)C(=O)[C@@]21C)C3(C)C (some centres unmarked) [Compound 6212] | < 1 |

Same assay, conditions: HCT116 colony formation; 72 h drug incubation, colonies counted after 7 days; Example 10, C-10 ester/C-7 hydroxy taxanes; read-out: IN VITRO ID 50 (nm) HCT116

| Compound | IC50 [nM] |
| --- | --- |
| CCCC(=O)O[C@H]1C(=O)[C@@]2(C)C([C@H](OC(=O)c3ccccc3)[C@]3(O)C[C@H](OC(=O)[C@H](O)[C@@H](NC(=O)c4ccco4)c4ccco4)C(C)=C1C3(C)C)[C@]1(OC(C)=O)CO[C@@H]1C[C@@H]2O (some centres unmarked) [Compound 3686] | < 1 |
| CC(=O)O[C@@]12CO[C@@H]1C[C@H](O)[C@@]1(C)C(=O)[C@H](OC(=O)C3CC3)C3=C(C)[C@@H](OC(=O)[C@H](O)[C@@H](NC(=O)OC(C)(C)C)c4ccsc4)C[C@@](O)([C@@H](OC(=O)c4ccccc4)C12)C3(C)C (some centres unmarked) [Compound 2794] | < 1 |
| CCC(=O)O[C@H]1C(=O)[C@@]2(C)C([C@H](OC(=O)c3ccccc3)[C@]3(O)C[C@H](OC(=O)[C@H](O)[C@@H](NC(=O)OC(C)C)c4cccs4)C(C)=C1C3(C)C)[C@]1(OC(C)=O)CO[C@@H]1C[C@@H]2O (some centres unmarked) [Compound 3361] | < 1 |
| CCCC(=O)O[C@H]1C(=O)[C@@]2(C)C([C@H](OC(=O)c3ccccc3)[C@]3(O)C[C@H](OC(=O)[C@H](O)[C@@H](NC(=O)OCC(C)C)c4ccco4)C(C)=C1C3(C)C)[C@]1(OC(C)=O)CO[C@@H]1C[C@@H]2O (some centres unmarked) [Compound 3957] | < 10 |
| CC(=O)OC12COC1CC(O)C1(C)C(=O)C(OC(=O)c3cccs3)C3=C(C)C(OC(=O)C(O)C(NC(=O)OC(C)(C)C)c4ccoc4)CC(O)(C(OC(=O)c4ccccc4)C21)C3(C)C (centres unmarked) [Compound 1923] | < 1 |
| CCCC(=O)O[C@H]1C(=O)[C@@]2(C)C([C@H](OC(=O)c3ccccc3)[C@]3(O)C[C@H](OC(=O)[C@H](O)[C@@H](NC(=O)c4ccco4)c4cccs4)C(C)=C1C3(C)C)[C@]1(OC(C)=O)CO[C@@H]1C[C@@H]2O (some centres unmarked) [Compound 3352] | < 1 |
| CC(=O)O[C@@]12CO[C@@H]1C[C@H](O)[C@@]1(C)C(=O)[C@H](OC(=O)C=C(C)C)C3=C(C)[C@@H](OC(=O)[C@H](O)[C@@H](NC(=O)OC(C)(C)C)c4ccsc4)C[C@@](O)([C@@H](OC(=O)c4ccccc4)C12)C3(C)C (some centres unmarked) [Compound 2511] | < 1 |
| CCC(=O)O[C@H]1C(=O)[C@@]2(C)C([C@H](OC(=O)c3ccccc3)[C@]3(O)C[C@H](OC(=O)[C@H](O)[C@@H](NC(=O)c4cccs4)c4cccs4)C(C)=C1C3(C)C)[C@]1(OC(C)=O)CO[C@@H]1C[C@@H]2O (some centres unmarked) [Compound 3425] | < 1 |
| CC(=O)O[C@@]12CO[C@@H]1C[C@H](O)[C@@]1(C)C(=O)[C@H](OC(=O)C3CC3)C3=C(C)[C@@H](OC(=O)[C@H](O)[C@@H](NC(=O)c4cccs4)c4cccs4)C[C@@](O)([C@@H](OC(=O)c4ccccc4)C12)C3(C)C (some centres unmarked) [Compound 3453] | < 1 |
| CCCC(=O)O[C@H]1C(=O)[C@@]2(C)C([C@H](OC(=O)c3ccccc3)[C@]3(O)C[C@H](OC(=O)[C@H](O)[C@@H](NC(=O)c4cccnc4)c4cccs4)C(C)=C1C3(C)C)[C@]1(OC(C)=O)CO[C@@H]1C[C@@H]2O (some centres unmarked) [Compound 4190] | < 10 |
| CC(=O)O[C@@]12CO[C@@H]1C[C@H](O)[C@@]1(C)C(=O)[C@H](OC(=O)C3CC3)C3=C(C)[C@@H](OC(=O)[C@H](O)[C@@H](NC(=O)c4cccs4)c4ccco4)C[C@@](O)([C@@H](OC(=O)c4ccccc4)C12)C3(C)C (some centres unmarked) [Compound 3663] | < 1 |
| CC(=O)O[C@@]12CO[C@@H]1C[C@H](O)[C@@]1(C)C(=O)[C@H](OC(=O)C3CC3)C3=C(C)[C@@H](OC(=O)[C@H](O)[C@H](C=C(C)C)NC(=O)OCC(C)C)C[C@@](O)([C@@H](OC(=O)c4ccccc4)C12)C3(C)C (some centres unmarked) [Compound 4720] | < 10 |
| CCC(=O)O[C@H]1C(=O)[C@@]2(C)C([C@H](OC(=O)c3ccccc3)[C@]3(O)C[C@H](OC(=O)[C@H](O)[C@@H](NC(=O)OCC(C)C)C4CC4)C(C)=C1C3(C)C)[C@]1(OC(C)=O)CO[C@@H]1C[C@@H]2O (some centres unmarked) [Compound 4799] | < 1 |
| CC(=O)OC12COC1CC(O)C1(C)C(=O)C(OC(=O)C(C)C)C3=C(C)C(OC(=O)C(O)C(NC(=O)OC(C)(C)C)c4ccccn4)CC(O)(C(OC(=O)c4ccccc4)C21)C3(C)C (centres unmarked) [Compound 2238] | < 1 |
| CC(=O)OC12COC1CC(O)C1(C)C(=O)C(OC(=O)C(C)C)C3=C(C)C(OC(=O)C(O)C(C=C(C)C)NC(=O)OC(C)(C)C)CC(O)(C(OC(=O)c4ccccc4)C21)C3(C)C (centres unmarked) [Compound 2226] | < 1 |
| CC(=O)O[C@@]12CO[C@@H]1C[C@H](O)[C@@]1(C)C(=O)[C@H](OC(=O)C3CC3)C3=C(C)[C@@H](OC(=O)[C@H](O)[C@@H](NC(=O)c4ccco4)c4ccco4)C[C@@](O)([C@@H](OC(=O)c4ccccc4)C12)C3(C)C (some centres unmarked) [Compound 3866] | < 1 |
